Reference: the NIST ThermoML archive (doi:10.1016/j.jct.2006.10.008)

Tests used:
[1] = xn = mol fraction of the nth substance listed; details: 298.15 K, 101 kPa, Liquid
[2] = excess molar enthalpy (molar enthalpy of mixing); xn = mol fraction of the nth substance listed; details: 298.15 K, 101 kPa, Liquid, Calvet calorimetry

CCCCCOC=O [pentyl methanoate] + ClCCCCCl
Details	excess molar enthalpy [kcal/mol]	mass density [kg/m3]
[1], x1 = 0.0535	–	1118.26
[1], x1 = 0.1055	–	1103.42
[1], x1 = 0.1566	–	1089.12
[1], x1 = 0.2106	–	1074.27
[1], x1 = 0.2635	–	1060
[1], x1 = 0.3199	–	1045.06
[1], x1 = 0.3768	–	1030.28
[1], x1 = 0.4344	–	1015.59
[1], x1 = 0.4908	–	1001.46
[1], x1 = 0.5505	–	986.81
[1], x1 = 0.6109	–	972.26
[1], x1 = 0.6726	–	957.67
[1], x1 = 0.7351	–	943.19
[1], x1 = 0.7986	–	928.74
[1], x1 = 0.8646	–	914.02
[1], x1 = 0.9292	–	899.89
[2], x1 = 0.0558	-0.00368	–
[2], x1 = 0.1297	-0.0102	–
[2], x1 = 0.2099	-0.0181	–
[2], x1 = 0.2822	-0.0275	–
[2], x1 = 0.3497	-0.0373	–
[2], x1 = 0.4176	-0.0442	–
[2], x1 = 0.4615	-0.0492	–
[2], x1 = 0.4847	-0.0503	–
[2], x1 = 0.5352	-0.0522	–
[2], x1 = 0.5989	-0.0512	–
[2], x1 = 0.6703	-0.0498	–
[2], x1 = 0.7496	-0.0436	–
[2], x1 = 0.8354	-0.0321	–
[2], x1 = 0.9293	-0.0167	–

ClCCCCCl [1,4-dichlorobutane] + CCOC=O
Details	excess molar enthalpy, [2] [kcal/mol]	mass density, [1] [kg/m3]
x2 = 0.0774	–	1120.56
x2 = 0.083	0.0262	–
x2 = 0.1549	–	1107.96
x2 = 0.1706	0.042	–
x2 = 0.229	–	1095.35
x2 = 0.256	0.0527	–
x2 = 0.2982	–	1083.08
x2 = 0.3368	0.0584	–
x2 = 0.3653	–	1070.71
x2 = 0.4094	0.0582	–
x2 = 0.4302	–	1058.33
x2 = 0.473	0.055	–
x2 = 0.4921	–	1046.05
x2 = 0.5279	0.0505	–
x2 = 0.5517	–	1033.83
x2 = 0.5977	0.0395	–
x2 = 0.6131	–	1020.82
x2 = 0.6452	0.034	–
x2 = 0.6683	–	1008.67
x2 = 0.6966	0.025	–
x2 = 0.7211	–	996.7
x2 = 0.7477	0.0167	–
x2 = 0.7717	–	984.84
x2 = 0.803	0.0108	–
x2 = 0.8212	–	973.13
x2 = 0.8543	0.00633	–
x2 = 0.8674	–	961.66
x2 = 0.907	0.00373	–
x2 = 0.9134	–	949.8
x2 = 0.9569	0.00222	938.37

ClCCCCl [1,3-dichloropropane] + CCCCOC=O
Details	excess molar enthalpy [kcal/mol]	mass density [kg/m3]
[1], x2 = 0.0505	–	1161.51
[1], x2 = 0.101	–	1144.56
[1], x2 = 0.1523	–	1127.68
[1], x2 = 0.2044	–	1110.9
[1], x2 = 0.2581	–	1094
[1], x2 = 0.313	–	1077.09
[1], x2 = 0.3693	–	1060.1
[1], x2 = 0.4847	–	1026.45
[1], x2 = 0.5445	–	1009.59
[1], x2 = 0.6675	–	976.01
[1], x2 = 0.7309	–	959.34
[1], x2 = 0.7964	–	942.5
[1], x2 = 0.862	–	925.98
[1], x2 = 0.9296	–	909.27
[2], x2 = 0.0521	-0.00691	–
[2], x2 = 0.1142	-0.0126	–
[2], x2 = 0.1765	-0.0207	–
[2], x2 = 0.2379	-0.0303	–
[2], x2 = 0.2982	-0.0385	–
[2], x2 = 0.3557	-0.049	–
[2], x2 = 0.4108	-0.0593	–
[2], x2 = 0.4602	-0.0664	–
[2], x2 = 0.5057	-0.0712	–
[2], x2 = 0.5508	-0.0716	–
[2], x2 = 0.6114	-0.069	–
[2], x2 = 0.6872	-0.0624	–
[2], x2 = 0.7608	-0.0527	–
[2], x2 = 0.8457	-0.0376	–
[2], x2 = 0.9261	-0.0206	–

CCCCCOC=O [pentyl methanoate] + ClCCCCCCCl
Details	excess molar enthalpy [kcal/mol]	mass density [kg/m3]
[1], x1 = 0.0731	–	1051.9
[1], x1 = 0.1352	–	1041.69
[1], x1 = 0.1967	–	1031.48
[1], x1 = 0.3212	–	1010.41
[1], x1 = 0.3822	–	999.88
[1], x1 = 0.4398	–	989.79
[1], x1 = 0.558	–	968.7
[1], x1 = 0.6153	–	958.24
[1], x1 = 0.6723	–	947.69
[1], x1 = 0.7282	–	937.22
[1], x1 = 0.7836	–	926.72
[1], x1 = 0.839	–	916.1
[1], x1 = 0.893	–	905.58
[1], x1 = 0.9462	–	895.13
[2], x1 = 0.0697	-0.00265	–
[2], x1 = 0.162	-0.00595	–
[2], x1 = 0.2559	-0.0114	–
[2], x1 = 0.3406	-0.0172	–
[2], x1 = 0.4168	-0.0225	–
[2], x1 = 0.4813	-0.0253	–
[2], x1 = 0.4927	-0.0259	–
[2], x1 = 0.5399	-0.0275	–
[2], x1 = 0.5935	-0.0264	–
[2], x1 = 0.6653	-0.0239	–
[2], x1 = 0.731	-0.0207	–
[2], x1 = 0.8005	-0.0167	–
[2], x1 = 0.8731	-0.0112	–
[2], x1 = 0.9459	-0.00559	–
